Like-named read-outs stand apart in the source and are kept apart here.
Test system: HCV genotype 1b replicon in Huh 7 cells
Test: HCV replicon assay (luciferase readout, 1b_Huh-Luc/Neo-ET cell line)
Format: cell-based
Outline: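 Inhibition expressed as percent of untreated control luciferase signal and fitted to a Hill-slope equation for EC50, with repeat determinations. Compounds were added in triplicate to Huh 7 cells stably expressing the genotype 1b luciferase replicon, with 72 h exposure.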

[1] = Hepatitis C virus, Huh-7, 72 h, read-out: Inhibition of HCV genotype 1b, Table 5, 72 h incubation
[2] = Hepatitis C virus, Huh-7, 72 h, read-out: Inhibition of HCV genotype 1b, Table 1, 72 h incubation
[3] = Hepatitis C virus, Huh-7, 72 h, read-out: Inhibition of HCV genotype 1b, Table 3, 72 h incubation
[4] = Hepatitis C virus, Huh-7, 72 h, read-out: Inhibition of HCV genotype 1b, Table 4, 72 h incubation
[5] = read-out: Inhibition of HCV genotype 1b, Table 5, 72 h incubation

COC(=O)N[C@H](C(=O)N1CCC[C@H]1c1ncc(C23CCC(c4ccc(-c5cnc([C@@H]6CCCN6C(=O)[C@@H](c6ccccc6)N6CCCCC6)[nH]5)cc4)(CC2)CC3)[nH]1)C(C)C [compound 2069]
EC50 [1]: < 1 nM

COC(=O)N[C@H](C(=O)N1CCC[C@H]1c1ncc(-c2ccc([C@H]3CC[C@H](c4cnc([C@@H]5CCCN5C(=O)[C@@H](NC(=O)OC5CCOCC5)C(C)C)[nH]4)CC3)cc2)[nH]1)C(C)C [compound 945]
EC50 [2]: < 1 nM

COC(=O)N[C@H](C(=O)N1CCC[C@H]1c1ncc(-c2ccc([C@H]3CC[C@H](c4cnc([C@@H]5CCCN5C(=O)[C@@H](NC(=O)OC)C5CC5)[nH]4)CC3)cc2)[nH]1)C1CC1 [compound 942]
EC50 [2]: < 1 nM

COC(=O)N[C@@H](C(=O)N1CCC[C@H]1c1ncc(-c2cc(F)c(N3CCC(c4cnc([C@@H]5CCCN5C(=O)[C@H](NS(=O)(=O)C5CC5)c5ccccc5)[nH]4)CC3)c(F)c2)[nH]1)c1ccccc1 [compound 477]
EC50 [3]: < 1 nM

CNC(=O)N[C@@H](C(=O)N1CCC[C@H]1c1ncc(-c2ccc(C34CCC(c5cnc([C@@H]6CCCN6C(=O)[C@@H](NC(=O)OC)C(C)C)[nH]5)(CC3)CC4)cc2)[nH]1)c1ccccc1 [compound 2102]
EC50 [1]: < 1 nM

COC(=O)N[C@H](C(=O)N1CCC[C@H]1c1ncc(C23CCC(c4ccc(-c5cnc([C@@H]6CCCN6C(=O)[C@@H](NC(=O)OC6CCOCC6)C(C)C)[nH]5)cc4)(CC2)CC3)[nH]1)C(C)C [compound 2079]
EC50 [1]: 1 to 9.9 nM

COC(=O)N[C@H](C(=O)N1CCCC[C@H]1c1ncc(C2CCN(c3c(F)cc(-c4cnc([C@@H]5CCCN5C(=O)[C@H](NC(=O)OC)c5ccccc5)[nH]4)cc3F)CC2)[nH]1)C(C)C [compound 500]
EC50 [3]: < 1 nM

COC(=O)N[C@@H](C(=O)N1CCC[C@H]1c1ncc(-c2ccc(N3CCC(c4cnc([C@@H]5CCCN5C(=O)[C@H](NC(=O)OC)c5ccccc5)[nH]4)CC3)c(F)c2)[nH]1)c1ccccc1 [compound 452]
EC50 [3]: < 1 nM

COC(=O)N(C)[C@H](C(=O)N1CCC[C@H]1c1ncc(-c2ccc(C34CCC(c5cnc([C@@H]6CCCN6C(=O)[C@H](C(C)C)N(C)C(=O)OC)[nH]5)(CC3)CC4)cc2)[nH]1)C(C)C [compound 913]
EC50 [1]: < 1 nM

COC(=O)N[C@@H](C(=O)N1CCOC[C@H]1c1ncc(-c2ccc(C34CCC(c5cnc([C@@H]6CCCN6C(=O)[C@H](NC(=O)OC)c6ccccc6)[nH]5)(CC3)CC4)cc2)[nH]1)c1ccccc1 [compound 2086]
EC50 [1]: < 1 nM

CC[C@H](C)[C@H](NC(=O)OC)C(=O)N1CCC[C@H]1c1ncc(-c2ccc(C34CCC(c5cnc([C@@H]6CCCN6C(=O)[C@@H](NC(=O)OC)C(C)C)[nH]5)(CC3)CC4)cc2)[nH]1 [compound 2073]
EC50 [1]: < 1 nM

CC(C)[C@H](NC(=O)N1CCC(O)CC1)C(=O)N1CCC[C@H]1c1ncc(-c2ccc(C34CCC(c5cnc([C@@H]6CCCN6C(=O)[C@@H](NC(=O)N6CCC(O)CC6)C(C)C)[nH]5)(CC3)CC4)cc2)[nH]1 [compound 630]
EC50 [1]: > 1000 nM

COC(=O)N[C@H](C(=O)N1CCC[C@H]1c1ncc(C23CCC(c4ccc(-c5cnc([C@@H]6CCCN6C(=O)[C@@H](NC(=O)C6CCN(C)CC6)C(C)C)[nH]5)cc4)(CC2)CC3)[nH]1)C(C)C [compound 647]
EC50 [1]: 10 to 999 nM

COC(=O)N[C@H](C(=O)N1CCC[C@H]1c1nc2ccc(-c3ccc(-c4ccc5nc([C@@H]6CCCN6C(=O)[C@@H](NC(=O)OC)C(C)C)[nH]c5c4)cc3)cc2[nH]1)C(C)C [compound 551]
EC50 [4]: < 1 nM

CC(C)(C)OC(=O)N[C@@H](C(=O)N1CCC[C@H]1C(=O)N[C@H]1CC[C@H](c2cccc(-c3cnc([C@@H]4CCCN4C(=O)[C@H](NC(=O)OC(C)(C)C)c4ccccc4)[nH]3)c2)CC1)c1ccccc1 [compound 362]
EC50 [2]: 1 to 9.9 nM

COC(=O)N[C@H](C(=O)N1CCC[C@H]1c1ncc(-c2ccc(C34CCC(c5cnc([C@@H]6CCCN6C(=O)[C@H](C(C)C)N(C)C)[nH]5)(CC3)CC4)cc2)[nH]1)C(C)C [compound 2056]
EC50 [1]: < 1 nM

COC(=O)N[C@H](C(=O)N1CCC[C@H]1c1ncc(C23CCC(c4ccc(-c5cnc([C@@H]6CCCN6C(=O)[C@@H](c6ccccc6)N(C)C)[nH]5)cc4)(CC2)CC3)[nH]1)C(C)C [compound 2067]
EC50 [1]: < 1 nM

COC(=O)N[C@H](C(=O)N[C@@H](C)c1ncc(-c2ccc(C34CCC(c5cnc([C@@H]6CCCN6C(=O)[C@H](NC(=O)OC)c6ccccc6)[nH]5)(CC3)CC4)cc2)[nH]1)C(C)C [compound 2083]
EC50 [1]: < 1 nM

COC(=O)N[C@@H](C(=O)N1CCC[C@H]1c1ncc(-c2ccc(C34CCC(c5cnc([C@@H]6CCCN6C(=O)[C@@H](NC(=O)N6CCC(=O)CC6)C(C)C)[nH]5)(CC3)CC4)cc2)[nH]1)c1ccccc1 [compound 644]
EC50 [1]: 1 to 9.9 nM

COC(=O)N[C@H](C(=O)N1CCC[C@H]1c1ncc(-c2ccc(C34CCC(c5cnc([C@@H]6CCCN6C(=O)[C@@H](NC(=O)N6CCC(O)CC6)C(C)C)[nH]5)(CC3)CC4)cc2)[nH]1)C(C)C [compound 633]
EC50 [5]: < 1 nM

COC(=O)N[C@@H](C(=O)N1CCC[C@H]1c1ncc(-c2ccc(C34CCC(c5cnc([C@@H]6CCCN6C(=O)[C@@H](NC(=O)N6CCN(C)CC6)C(C)C)[nH]5)(CC3)CC4)cc2)[nH]1)c1ccccc1 [compound 642]
EC50 [5]: 1 to 9.9 nM

COC(=O)N[C@@H](CC(C)C)C(=O)N1CCC[C@H]1c1ncc(-c2ccc(C34CCC(c5cnc([C@@H]6CCCN6C(=O)[C@H](CC(C)C)NC(=O)OC)[nH]5)(CC3)CC4)cc2)[nH]1 [compound 2091]
EC50 [1]: < 1 nM

O=C(N[C@@H](C(=O)N1CCC[C@H]1c1ncc(-c2cc(F)c(N3CCC(c4cnc([C@@H]5CCCN5C(=O)[C@H](NC(=O)C5CC5)c5ccccc5)[nH]4)CC3)c(F)c2)[nH]1)c1ccccc1)C1CC1 [compound 485]
EC50 [3]: < 1 nM

COC(=O)N[C@@H](C(=O)N1CCC[C@H]1c1ncc(C2CCC(c3ccc(-c4cnc([C@@H]5CCCN5C(=O)[C@@H](c5ccccc5)N5CCOCC5)[nH]4)cc3)CC2)[nH]1)c1ccccc1 (stereo partly drawn) [compound 378]
EC50 [2]: < 1 nM

COC(=O)N[C@H](C(=O)N1CCC[C@H]1c1nc2ccc(-c3ccc(-c4ccc5nc([C@H](C)NC(=O)[C@@H](C(C)C)N(C)C)[nH]c5c4)cc3)cc2[nH]1)C(C)C [compound 936]
EC50 [4]: < 1 nM

COC(=O)N[C@H](C(=O)N1CCC[C@H]1c1ncc(-c2ccc([C@H]3CC[C@H](c4cnc([C@@H]5CCCN5C(=O)[C@H](NC(=O)OC)c5ccccc5)[nH]4)CC3)cc2)[nH]1)C(C)C [compound 2001]
EC50 [2]: < 1 nM

CC[C@H](C)[C@H](NC(=O)OC)C(=O)N1CCC[C@H]1c1ncc(C23CCC(c4ccc(-c5cnc([C@@H]6CCCN6C(=O)[C@@H](NC(=O)OC)C(C)C)[nH]5)cc4)(CC2)CC3)[nH]1 [compound 2066]
EC50 [1]: < 1 nM

COC(=O)N[C@H](C(=O)N1CCC[C@H]1c1ncc(-c2ccc(C34CCC(c5cnc([C@@H]6CCCN6C(=O)[C@@H](NC(=O)OC)C6CCCC6)[nH]5)(CC3)CC4)cc2)[nH]1)C1CCCC1 [compound 2094]
EC50 [1]: < 1 nM

COC(=O)N[C@H](C(=O)N1CCC[C@H]1c1ncc(-c2ccc(C34CCC(c5cnc([C@@H]6CCCN6C(=O)[C@@H](NC(=O)OC6CCOCC6)c6ccccc6)[nH]5)(CC3)CC4)cc2)[nH]1)C(C)C [compound 2107]
EC50 [1]: < 1 nM

O=C(N[C@@H](C(=O)N1CCC[C@H]1CNC(=O)C12CCC(c3ccc(-c4cnc([C@@H]5CCCN5C(=O)[C@H](NC(=O)N5CCOCC5)c5ccccc5)[nH]4)cc3)(CC1)CC2)c1ccccc1)N1CCOCC1 [compound 603]
EC50 [1]: 1 to 9.9 nM

CC(C)[C@@H](NC(=O)OC(C)(C)C)C(=O)N1CCC[C@H]1C(=O)N[C@H]1CC[C@H](c2ccc(-c3cnc([C@@H]4CCCN4C(=O)[C@H](NC(=O)OC(C)(C)C)C(C)C)[nH]3)cc2)CC1 [compound 356]
EC50 [2]: 10 to 999 nM

COC(=O)N[C@@H](C(=O)N1CCC[C@H]1c1ncc(-c2cc(F)c(N3CCC(c4cnc([C@@H]5CCCN5C(=O)[C@H](NC(=O)N5CCCCC5)c5ccccc5)[nH]4)CC3)c(F)c2)[nH]1)c1ccccc1 [compound 488]
EC50 [3]: < 1 nM

COC(=O)N[C@H](C(=O)N1CCC[C@H]1c1ncc(-c2ccc(C34CCC(c5cnc([C@@H]6CCCN6C(=O)[C@@H](NC(=O)OC6CCOCC6)C(C)C)[nH]5)(CC3)CC4)cc2)[nH]1)C(C)C [compound 2053]
EC50 [1]: 1 to 9.9 nM

COC(=O)N[C@@H](C(=O)N1CCC[C@H]1c1ncc(C23CCC(c4ccc(-c5cnc([C@@H]6CCCN6C(=O)[C@@H](c6ccccc6)N(C)C)[nH]5)cc4)(CC2)CC3)[nH]1)c1ccccc1 [compound 622]
EC50 [1]: < 1 nM

C[C@H](NC(=O)[C@H](NC(=O)OC(C)(C)C)c1ccccc1)c1ncc(C2CCN(c3c(F)cc(-c4cnc([C@@H]5CCCN5C(=O)[C@H](NC(=O)OC(C)(C)C)c5ccccc5)[nH]4)cc3F)CC2)[nH]1 [compound 513]
EC50 [3]: < 1 nM

COC(=O)N[C@H](C(=O)N1CCC[C@H]1c1ncc(-c2ccc(C34CCC(c5cnc([C@@H]6CCCN6C(=O)[C@@H](NC(=O)OC)C6CC6)[nH]5)(CC3)CC4)cc2)[nH]1)C1CC1 [compound 908]
EC50 [1]: < 1 nM

COC(=O)N[C@@H](C(=O)N1CCC[C@H]1C(=O)NC1CCN(c2ccc(-c3cnc([C@@H]4CCCN4C(=O)[C@H](NC(=O)OC)c4ccccc4)[nH]3)cc2F)CC1)c1ccccc1 [compound 454]
EC50 [3]: < 1 nM

COC(=O)N[C@@H](C(=O)N1CCC[C@H]1c1ncc(C2CCN(c3c(F)cc(-c4cnc([C@@H]5CCCN5C(=O)[C@H](NC(=O)OC(C)(C)C)c5ccccc5)[nH]4)cc3F)CC2)[nH]1)c1ccccc1 [compound 479]
EC50 [3]: < 1 nM

COC(=O)N[C@H](C(=O)N1CCC[C@H]1c1ncc(-c2ccc(C34CCC(c5cnc([C@@H]6CCCN6C(=O)[C@@H](NC(=O)N6CCOCC6)C(C)C)[nH]5)(CC3)CC4)cc2)[nH]1)C(C)C [compound 636]
EC50 [5]: < 1 nM

— US9120779B2, “Inhibitors of HCV NS5A” (PRESIDIO PHARMACEUTICALS, INC., priority 2008, dated 2015)
